Measured values taken from PubChem BioAssay AID2060616 (Molecular Pharmacology Branch, DTP, NCI, 2025).

Tested on: 377384-186-R-J1-PDC complex spheroid viability
Assay: Anticancer human tumor 377384-186-R-J1-PDC patient-derived pancreatic carcinoma cell line growth inhibition [CLK]
Settings: for IC50: curve of first compound; for viability, T/C: stronger effect = lower value
Excerpt: A high-throughput screen of multi-cell type tumor spheroids was designed to identify active combinations of […] and targeted small molecules. Complex spheroids include a stromal component modeled by human endothelial cells (HUVEC) and fibroblasts modeled by human mesenchymal stem cells (MSCs). The concentration ranges selected for each drug and investigational agent were based upon clinically achievable concentrations if the clinical Cmax of the agent was known.
Compounds. The drugs and investigational agents: cirtuvivint (SM08502; NSC835563), CC-671 (NSC850746), vemurafenib (NSC761431), tapotoclax (NSC804041), sotorasib (NSC818433), adagrasib (NSC831453), MRTX-1133 (NSC836407), BAY2416964 (NSC825713), copanlisib (NSC816437), inavolisib (NSC800729), abemaciclib (NSC768073), osimertinib (NSC779217), entinostat (NSC756642), eltanexor (KPT-8602, NSC794443), venetoclax (NSC766270), ceralasertib (NSC777638), bortezomib (NSC756655), olaparib (NSC753686), talazoparib (NSC767125), alisertib (NSC759677), peposertib (NSC802822), gemcitabine (NSC613327), 5-fluorouracil (NSC19893), SN-38 (NSC673596), oxaliplatin (NSC266046), paclitaxel (NSC125973), and doxorubicin (NSC123127), were obtained from the National Cancer Institute (NCI) Developmental Therapeutics Program Chemical Repository. The FDA-approved anticancer drug set is available from the Developmental Therapeutics Program at https://dtp.cancer.gov/organization/dscb/obtaining/available plates.htm. […] The stock solutions were prepared in dimethyl sulfoxide (DMSO, Sigma-Aldrich, St. Louis, MO, cat. D2650), except for the platinum complexes which were prepared in saline (Quality Biological, Gaithersburg, MD, cat. 114-055-101), at 800-fold the tested concentration and stored at -70 degrees C prior to their use. All drugs and investigational agents were tested over a range starting from a high concentration at or near the clinical Cmax and decreasing in half-log increments. If the clinical Cmax for an agent had not been determined, the highest concentration tested was 10 microM.
Cell Culture. All cells were maintained in an incubator at 37 degrees C and 5% CO2 with 95% humidity. The PDC lines were cultured according to standard operating procedures established by the NCI PDMR. Briefly, all PDCs were thawed and cultured in Matrigel-coated flasks prepared with a working solution of 1X Ham's F-12 nutrient mix, without supplementation (Invitrogen, Waltham, MA, cat. 11765054), 100 U/mL penicillin-streptomycin (Invitrogen, cat. 15140122), and 2.5% Matrigel (Corning Inc., Corning, NY, cat. 354248) for the first three passages. The 947758-054-R-J2-PDC line was cultured in 6B/Colon 1A media, which includes advanced DMEM/F-12 (Thermo Fisher Scientific, cat. 12634028), 10 mM HEPES (Thermo Fisher Scientific, cat. 15630080), 1X GlutaMAX supplement (Thermo Fisher Scientific, cat. 35050061), 0.1 mg/mL primocin (InvivoGen, cat. ant-pm-2), 10% defined fetal bovine serum, heat inactivated (HyClone Laboratories Inc., cat. SH30070.03HI), 1.25 mM N-Acetyl-L-cysteine (Sigma-Aldrich, cat. A9165), 10 mM nicotinamide (Sigma-Aldrich, cat. N0636), 1X B-27 supplement (Thermo Fisher Scientific, cat. 17504044), 1X N-2 supplement (Thermo Fisher Scientific, cat. 17502048), and 10 microM Y-27632 dihydrochloride (Tocris Bioscience, cat. 1254). The 876862-298-R-J1-PDC was cultured in 6E media, which includes all 6B/Colon 1A media components plus 50% L-WRN conditioned media (ATCC, cat. CRL-3276), 50 ng/mL recombinant human EGF recombinant protein (hEGF; Thermo Fisher Scientific, cat. PHG0311), 10 ng/mL recombinant human fibroblast growth factor 10 (hGFG-10; PeproTech, cat. 100-26), 1 ng/mL recombinant human fibroblast growth factor 2 (hFGF-2; PeproTech, cat. 100-18B), and 1 µM prostaglandin E2 (PGE2; Tocris, cat. 2296). The 227483-062-R1-J1-PDC line was cultured in Panc media, containing all 6E components except hFGF-2, with the addition of 500 nM SB-431542 (Selleckchem, cat. S1067) and 10 nM gastrin (Tocris, cat. 3006). […]

[1] = second compound 0.0316 µM, first compound 0.0316 µM
[2] = second compound 0.0316 µM, first compound 0.1 µM
[3] = second compound 0.1 µM, first compound 0.0316 µM
[4] = second compound 0.1 µM, first compound 0.1 µM
[5] = second compound 0.316 µM, first compound 0.0316 µM
[6] = second compound 0.316 µM, first compound 0.1 µM
[7] = second compound 1 µM, first compound 0.0316 µM
[8] = second compound 1 µM, first compound 0.1 µM
[9] = second compound 3.16 µM, first compound 0.0316 µM
[10] = second compound 3.16 µM, first compound 0.1 µM
[11] = second compound 10 µM, first compound 0.0316 µM
[12] = second compound 10 µM, first compound 0.1 µM
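Note: spheroids exposed to agents for 7 days before reading.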
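Throughout, for viability, T/C: luminescence signal used as a stand-in for viable cells.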

Cn1ncnc1[C@H]1c2n[nH]c(=O)c3cc(F)cc(c23)N[C@@H]1c1ccc(F)cc1 + CN1CCN(c2cc(C(=O)Nc3cc4cc(-c5cnn(C)c5)ccc4cn3)ccn2)CC1
IC50 (second compound 0.0316 µM): > 100 nM | IC50 (second compound 0.1 µM): 50 nM | IC50 (second compound 0.316 µM): < 0.316 nM | IC50 (second compound 1 µM): < 0.316 nM | IC50 (second compound 3.16 µM): < 0.316 nM | IC50 (second compound 10 µM): < 0.316 nM | viability, T/C (second compound 0.0316 µM, first compound 0.000316 µM): 90.4% | viability, T/C (second compound 0.0316 µM, first compound 0.001 µM): 77.8% | viability, T/C (second compound 0.0316 µM, first compound 0.00316 µM): 74.8% | viability, T/C (second compound 0.0316 µM, first compound 0.01 µM): 65.6% | viability, T/C [1]: 55.4% | viability, T/C [2]: 52.1% | viability, T/C (second compound 0.1 µM, first compound 0.000316 µM): 88.1% | viability, T/C (second compound 0.1 µM, first compound 0.001 µM): 81.2% | viability, T/C (second compound 0.1 µM, first compound 0.00316 µM): 70.4% | viability, T/C (second compound 0.1 µM, first compound 0.01 µM): 58.9% | viability, T/C [3]: 53.9% | viability, T/C [4]: 46% | viability, T/C (second compound 0.316 µM, first compound 0.000316 µM): 21.2% | viability, T/C (second compound 0.316 µM, first compound 0.001 µM): 23.7% | viability, T/C (second compound 0.316 µM, first compound 0.00316 µM): 25.9% | viability, T/C (second compound 0.316 µM, first compound 0.01 µM): 22.4% | viability, T/C [5]: 21.9% | viability, T/C [6]: 18.6% | viability, T/C (second compound 1 µM, first compound 0.000316 µM): 0.86% | viability, T/C (second compound 1 µM, first compound 0.001 µM): 0.77% | viability, T/C (second compound 1 µM, first compound 0.00316 µM): 1.08% | viability, T/C (second compound 1 µM, first compound 0.01 µM): 0.85% | viability, T/C [7]: 0.82% | viability, T/C [8]: 1.53% | viability, T/C (second compound 3.16 µM, first compound 0.000316 µM): 0.25% | viability, T/C (second compound 3.16 µM, first compound 0.001 µM): 0.59% | viability, T/C (second compound 3.16 µM, first compound 0.00316 µM): 1.07% | viability, T/C (second compound 3.16 µM, first compound 0.01 µM): 0.33% | viability, T/C [9]: 0.69% | viability, T/C [10]: 0.48% | viability, T/C (second compound 10 µM, first compound 0.000316 µM): 0.45% | viability, T/C (second compound 10 µM, first compound 0.001 µM): 1.52% | viability, T/C (second compound 10 µM, first compound 0.00316 µM): 0.56% | viability, T/C (second compound 10 µM, first compound 0.01 µM): 1.45% | viability, T/C [11]: 0.51% | viability, T/C [12]: 0.39%

CC1(C)CCC(CN2CCN(c3ccc(C(=O)NS(=O)(=O)c4ccc(NCC5CCOCC5)c([N+](=O)[O-])c4)c(Oc4cnc5[nH]ccc5c4)c3)CC2)=C(c2ccc(Cl)cc2)C1 + CNC(=O)c1ccc(Nc2nc(OC3CCCC3)c3c(-c4ccc5nc(C)oc5c4)c[nH]c3n2)c(OC)c1
IC50 (second compound 0.0316 µM): > 10000 nM | IC50 (second compound 0.1 µM): > 10000 nM | IC50 (second compound 0.316 µM): < 31.6 nM | IC50 (second compound 1 µM): < 31.6 nM | IC50 (second compound 3.16 µM): < 31.6 nM | IC50 (second compound 10 µM): < 31.6 nM | viability, T/C [1]: 105% | viability, T/C [2]: 93.2% | viability, T/C (second compound 0.0316 µM, first compound 0.316 µM): 96.9% | viability, T/C (second compound 0.0316 µM, first compound 1 µM): 109% | viability, T/C (second compound 0.0316 µM, first compound 3.16 µM): 82.1% | viability, T/C (second compound 0.0316 µM, first compound 10 µM): 104% | viability, T/C [3]: 59.8% | viability, T/C [4]: 57.4% | viability, T/C (second compound 0.1 µM, first compound 0.316 µM): 49.3% | viability, T/C (second compound 0.1 µM, first compound 1 µM): 56.6% | viability, T/C (second compound 0.1 µM, first compound 3.16 µM): 36.4% | viability, T/C (second compound 0.1 µM, first compound 10 µM): 59.8% | viability, T/C [5]: 20.4% | viability, T/C [6]: 21.6% | viability, T/C (second compound 0.316 µM, first compound 0.316 µM): 19.7% | viability, T/C (second compound 0.316 µM, first compound 1 µM): 19% | viability, T/C (second compound 0.316 µM, first compound 3.16 µM): 17.6% | viability, T/C (second compound 0.316 µM, first compound 10 µM): 21.1% | viability, T/C [7]: 23.3% | viability, T/C [8]: 22.5% | viability, T/C (second compound 1 µM, first compound 0.316 µM): 18.2% | viability, T/C (second compound 1 µM, first compound 1 µM): 19.1% | viability, T/C (second compound 1 µM, first compound 3.16 µM): 19.3% | viability, T/C (second compound 1 µM, first compound 10 µM): 21.6% | viability, T/C [9]: 20.2% | viability, T/C [10]: 20.7% | viability, T/C (second compound 3.16 µM, first compound 0.316 µM): 20% | viability, T/C (second compound 3.16 µM, first compound 1 µM): 18.8% | viability, T/C (second compound 3.16 µM, first compound 3.16 µM): 21.9% | viability, T/C (second compound 3.16 µM, first compound 10 µM): 20.9% | viability, T/C [11]: 20.2% | viability, T/C [12]: 21.6% | viability, T/C (second compound 10 µM, first compound 0.316 µM): 21.2% | viability, T/C (second compound 10 µM, first compound 1 µM): 20.1% | viability, T/C (second compound 10 µM, first compound 3.16 µM): 19.2% | viability, T/C (second compound 10 µM, first compound 10 µM): 21.3%
